CC(=O)Nc1ccc(CC(=O)O)cc1
solubility (mole fraction)
Conditions | 278.15 K | 283.15 K | 288.15 K | 293.15 K | 298.15 K | 303.15 K | 308.15 K | 313.15 K | 318.15 K
in 2-butanone | 0.00496 | 0.00586 | 0.00689 | 0.00821 | 0.00975 | 0.0115 | 0.0137 | 0.0162 | 0.0192
in acetone | 0.00366 | 0.00441 | 0.00534 | 0.00646 | 0.0078 | 0.00942 | 0.0114 | 0.0136 | 0.0161
in acetonitrile | 0.00093 | 0.00116 | 0.00142 | 0.00175 | 0.00215 | 0.00262 | 0.00318 | 0.00381 | 0.00455
in cyclohexane | – | 1.89e-06 | 2.51e-06 | 3.4e-06 | 4.44e-06 | 5.83e-06 | 7.44e-06 | 9.5e-06 | 1.21e-05
in ethanol | 0.0062 | 0.00723 | 0.00851 | 0.0102 | 0.0121 | 0.0143 | 0.0171 | 0.0201 | 0.0238
in ethyl acetate | 0.000627 | 0.000783 | 0.000985 | 0.00126 | 0.00156 | 0.00193 | 0.00238 | 0.00291 | 0.00357
in isopropanol | 0.00293 | 0.00353 | 0.00437 | 0.0054 | 0.00666 | 0.00823 | 0.0101 | 0.0123 | 0.0149
in methanol | 0.00792 | 0.00927 | 0.0113 | 0.0138 | 0.0169 | 0.0207 | 0.0249 | 0.0303 | 0.0369
in n-butanol | 0.00401 | 0.0048 | 0.0058 | 0.00711 | 0.00871 | 0.0105 | 0.0126 | 0.0149 | 0.0178
in n-propanol | 0.00538 | 0.00628 | 0.00745 | 0.00889 | 0.0105 | 0.0126 | 0.0149 | 0.0175 | 0.0204
in toluene | 2.62e-06 | 3.44e-06 | 4.5e-06 | 5.88e-06 | 7.6e-06 | 9.71e-06 | 1.24e-05 | 1.59e-05 | 2.04e-05
in water | 0.000163 | 0.000208 | 0.000264 | 0.000336 | 0.000421 | 0.000534 | 0.000661 | 0.000826 | 0.00104
